Source: PMC4688987, “Characterization of Toxoplasma gondii glyoxalase 1 and evaluation of inhibitory effects of curcumin on the enzyme and parasite cultures” (Parasites & Vectors, 2015)

Target: T1, rTgGlo1 (recombinant Toxoplasma gondii glyoxalase 1) (Toxoplasma gondii, UniProt A0A7J6JV59)
T1 construct: gene TGRH88_062270; full-length ORF (1008 nt, printed 336 residues) in pRSETb, His-tagged, E. coli BL21(DE3)pLysS; S-hexylglutathione-agarose then Ni-NTA; two glyoxalase domains 20-167 and 181-325
T1 sequence (A0A7J6JV59 1-336): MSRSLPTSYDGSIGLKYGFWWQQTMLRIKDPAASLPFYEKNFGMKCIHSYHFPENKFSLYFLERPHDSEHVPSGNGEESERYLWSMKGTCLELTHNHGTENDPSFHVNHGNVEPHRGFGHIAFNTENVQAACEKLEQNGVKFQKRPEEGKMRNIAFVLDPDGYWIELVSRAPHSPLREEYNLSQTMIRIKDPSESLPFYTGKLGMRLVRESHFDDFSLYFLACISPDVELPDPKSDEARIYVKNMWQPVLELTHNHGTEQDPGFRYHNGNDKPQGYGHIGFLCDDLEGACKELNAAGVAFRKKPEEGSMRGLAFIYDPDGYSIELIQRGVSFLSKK
Experiment: spectrophotometric at […] nm, Lineweaver-Burk
Type: biochemical

COc1cc(/C=C/C(=O)CC(=O)/C=C/c2ccc(O)c(OC)c2)ccc1O [curcumin] gave a Ki of 12.9 ± 0.5 µM.
